Data published in DBAASP.
≈ marks a conversion by molar mass, not a printed value. Where “and” joins values, the source holds several entries; their conditions need not be identical. Equal values may be shown once. Each block holds one compound with its values, some of them ahead of it.

Assays:
Assay in all cases: ≥ marks a high value that may be exact or a test limit, other limits are often not marked, values filed in µg/mL are converted to µM
[1] = tested on: Staphylococcus aureus ATCC 2592
[2] = tested on: Candida albicans ATCC 2002
Shigella dysenteriae = tested on: Shigella dysenteriae
Pseudomonas aeruginosa = tested on: Pseudomonas aeruginosa
[3] = tested on: Escherichia coli ATCC 25922
[4] = tested on: Acinetobacter calcoaceticus
[5] = tested on: Staphylococcus aureus NCTC 10788
[6] = tested on: Escherichia coli DH5alpha
[7] = tested on: Staphylococcus aureus ATCC 9144
[8] = tested on: Bacillus subtilis ATCC 6633
[9] = tested on: Escherichia coli ATCC 10536
[10] = tested on: Staphylococcus aureus ATCC BAA-1556
[11] = tested on: Candida albicans ATCC 10231
[12] = tested on: Pseudomonas aeruginosa ATCC 15422
[13] = tested on: Staphylococcus epidermidis KCTC 1917
[14] = tested on: Enterococcus faecalis ATCC 29212
[15] = tested on: Staphylococcus aureus USA 100
[16] = tested on: Pseudomonas syringae pv. syringae DSM 10604
[17] = tested on: Pectobacterium carotovorum subsp. carotovorum DSM 30168
[18] = tested on: Pseudomonas corrugata DSM 7228
[19] = tested on: Pseudomonas syringae pv. tomato DC3000
[20] = tested on: Clavibacter michiganensis subsp. michiganensis DSM 46294
[21] = tested on: Xanthomonas vesicatoria DSM 50861
[22] = tested on: Staphylococcus aureus USA 300
[23] = tested on: Pseudomonas aeruginosa ATCC 9027
[24] = tested on: Candida albicans ATCC 90028
[25] = tested on: Streptococcus pyogenes ATCC 19615
[26] = tested on: Pseudomonas aeruginosa ATCC 27853
Escherichia coli = tested on: Escherichia coli
[27] = tested on: Staphylococcus aureus ATCC 25923
Bacillus subtilis = tested on: Bacillus subtilis
[28] = tested on: Klebsiella pneumoniae ATCC 13883
[29] = tested on: Salmonella enterica subsp. enterica serovar Typhimurium ATCC 14028

Compound: CC[C@H](C)[C@H](NC(=O)[C@@H]1CCCN1C(=O)[C@H](Cc1ccccc1)NC(=O)[C@@H](N)Cc1ccccc1)C(=O)N[C@H](C(=O)NCC(=O)N[C@@H](CCCCN)C(=O)N[C@@H](CC(C)C)C(=O)N[C@@H](CC(C)C)C(=O)N[C@@H](CO)C(N)=O)C(C)C [FFPIVGKLLS]
MIC [1]: 13.4 µM (≈ 15 µg/mL)
MIC [2]: 13.4 µM (≈ 15 µg/mL)
MIC (Shigella dysenteriae): ≥ 53.6 µM
MIC (Pseudomonas aeruginosa): 22.3 µM (≈ 25 µg/mL)
MIC [3]: 26.8 µM (≈ 30 µg/mL)
MIC [4]: ≥ 66.9 µM

Compound: CC[C@H](C)[C@H](NC(=O)[C@H](CC(C)C)NC(=O)CNC(=O)[C@H](CC(C)C)NC(=O)[C@@H](N)Cc1ccccc1)C(=O)NCC(=O)N[C@@H](CO)C(=O)N[C@@H](CC(C)C)C(=O)N[C@@H](CC(C)C)C(N)=O [FLGLIGSLL]
MIC [5]: ≥ 137 µM

Compound: CC[C@H](C)[C@H](NC(=O)[C@H](CCCN=C(N)N)NC(=O)[C@@H](NC(=O)[C@@H](NC(=O)[C@@H]1CCCN1C(=O)[C@@H](NC(=O)[C@@H](NC(=O)[C@H](C)NC(=O)[C@@H]1CCCN1C(=O)CNC(=O)[C@H](Cc1ccc(O)cc1)NC(=O)[C@H](CCCCN)NC(=O)[C@H](CCCCN)NC(=O)[C@H](Cc1c[nH]c2ccccc12)NC(=O)[C@H](C)NC(=O)[C@H](CCCN=C(N)N)NC(=O)[C@H](CC(C)C)NC(=O)[C@H](C)NC(=O)[C@H](CCCCN)NC(=O)[C@H](CCCN=C(N)N)NC(=O)CNC(=O)[C@H](CC(C)C)NC(=O)[C@H](CO)NC(=O)[C@H](CCCN=C(N)N)NC(=O)[C@H](C)NC(=O)CNC(=O)CN)[C@@H](C)CC)C(C)C)[C@@H](C)CC)[C@@H](C)CC)C(N)=O [GGARSLGRKALRAWKKYGPAIVPIIRI]
MIC [6]: 2.6 µM (≈ 7.66 µg/mL)
MIC [7]: 3.9 µM (≈ 11.5 µg/mL)
MIC [8]: 1.7 µM (≈ 5.01 µg/mL)
MIC [9]: 2.6 µM (≈ 7.66 µg/mL)

Compound: CC[C@H](C)[C@H](NC(=O)[C@H](CCCN=C(N)N)NC(=O)[C@@H](NC(=O)[C@@H](NC(=O)[C@@H]1CCCN1C(=O)[C@@H](NC(=O)[C@@H](NC(=O)[C@@H](NC(=O)[C@@H]1CCCN1C(=O)CNC(=O)[C@H](Cc1ccc(O)cc1)NC(=O)[C@H](CCCCN)NC(=O)[C@H](CCCCN)NC(=O)[C@H](Cc1c[nH]c2ccccc12)NC(=O)[C@H](C)NC(=O)[C@H](CCCN=C(N)N)NC(=O)[C@H](CC(C)C)NC(=O)[C@H](C)NC(=O)[C@H](CCCCN)NC(=O)[C@H](CCCN=C(N)N)NC(=O)CNC(=O)[C@H](CC(C)C)NC(=O)[C@H](CO)NC(=O)[C@H](CCCN=C(N)N)NC(=O)[C@H](C)NC(=O)CNC(=O)CN)[C@@H](C)CC)[C@@H](C)CC)C(C)C)[C@@H](C)CC)[C@@H](C)CC)C(N)=O [GGARSLGRKALRAWKKYGPIIVPIIRI]
MIC [6]: 2.7 µM (≈ 8.07 µg/mL)
MIC [7]: 3.8 µM (≈ 11.4 µg/mL)
MIC [8]: 1.5 µM (≈ 4.48 µg/mL)
MIC [9]: 2.5 µM (≈ 7.47 µg/mL)

Compound: CC(C)C[C@H](NC(=O)[C@H](CC(C)C)NC(=O)[C@H](CCCCN)NC(=O)[C@@H](N)CCCCN)C(=O)N[C@@H](CCCCN)C(=O)N[C@@H](Cc1c[nH]c2ccccc12)C(N)=O [KKLLKW]
MIC [10]: ≥ 100 µM

Compound: CC(C)C[C@H](NC(=O)CNC(=O)[C@H](Cc1ccc(O)cc1)NC(=O)[C@H](Cc1cnc[nH]1)NC(=O)[C@@H]1CCCN1C(=O)[C@H](CC(C)C)NC(=O)[C@H](CCC(=O)O)NC(=O)[C@H](Cc1ccccc1)NC(=O)[C@H](Cc1cnc[nH]1)NC(=O)[C@H](CO)NC(=O)[C@@H](N)CCCCN)C(=O)O [KSHFELPHYGL]
MIC [11]: > 500 µM
MIC [3]: > 500 µM
MIC [12]: ≥ 500 µM
MIC [13]: ≥ 315 µM
MIC [14]: 468 µM and 458 µM and 442 µM

Now from value to compound:

MIC [10]: ≥ 100 µM
Compound: NCCCC[C@H](N)C(=O)N[C@@H](Cc1c[nH]c2ccccc12)C(=O)N[C@@H](CCCN=C(N)N)C(=O)N[C@@H](CCCN=C(N)N)C(=O)N[C@@H](Cc1c[nH]c2ccccc12)C(N)=O [KWRRW]

MIC [10]: 3.13 µM (≈ 3.56 µg/mL)
Compound: CC(C)C[C@H](NC(=O)[C@H](CC(C)C)NC(=O)[C@H](CCCCN)NC(=O)[C@H](CC(C)C)NC(=O)[C@H](CC(C)C)NC(=O)[C@H](Cc1c[nH]c2ccccc12)NC(=O)[C@H](CCCCN)NC(=O)[C@H](CC(C)C)NC(=O)[C@@H](N)CC(C)C)C(N)=O [LLKWLLKLL]

MIC [10]: 3.13 µM (≈ 3.34 µg/mL)
Compound: CC(C)C[C@H](NC(=O)[C@H](CC(C)C)NC(=O)[C@H](CCCCN)NC(=O)[C@H](CC(C)C)NC(=O)[C@H](CC(C)C)NC(=O)[C@H](CCCCN)NC(=O)[C@H](CC(C)C)NC(=O)[C@H](CC(C)C)NC(=O)[C@@H](N)CC(C)C)C(N)=O [LLLKLLKLL]

MIC [15]: ≥ 100 µM
Compound: NC(=O)CC[C@H](NC(=O)[C@H](CCCN=C(N)N)NC(=O)[C@@H](N)CCC(N)=O)C(=O)N[C@@H](CCCN=C(N)N)C(N)=O [QRQR]

MIC [16]: 0.061 µM (≈ 0.0999 µg/mL)
MIC [17]: 6.1 µM (≈ 9.99 µg/mL)
MIC [18]: 0.305 µM (≈ 0.5 µg/mL)
MIC [19]: 0.61 µM (≈ 0.999 µg/mL)
MIC [20]: 0.61 µM (≈ 0.999 µg/mL)
MIC [21]: 0.61 µM (≈ 0.999 µg/mL)
Compound: CC[C@H](C)[C@H](NC(=O)[C@H](CCCCN)NC(=O)[C@H](Cc1ccccc1)NC(=O)[C@H](CCCCN)NC(=O)[C@H](CCCCN)NC(=O)[C@H](CCCCN)NC(=O)[C@@H](N)CCCN=C(N)N)C(=O)N[C@@H](Cc1ccccc1)C(=O)N[C@@H](CCCCN)C(=O)N[C@@H](CCCN=C(N)N)C(=O)N[C@@H](CC(C)C)C(=O)N[C@@H](Cc1ccccc1)C(N)=O [RKKKFKIFKRLF]

MIC [22]: ≥ 100 µM
MIC [23]: > 100 µM
MIC [24]: ≥ 100 µM
MIC [15]: ≥ 100 µM
Compound: CSCC[C@H](NC(=O)[C@H](Cc1cnc[nH]1)NC(=O)[C@H](CCCCN)NC(=O)[C@H](CC(C)C)NC(=O)[C@H](CCCCN)NC(=O)[C@@H](N)CCCN=C(N)N)C(=O)N[C@@H](CCCN=C(N)N)C(=O)N[C@@H](Cc1ccccc1)C(=O)O [RKLKHMRF]

MIC [25]: ≥ 100 µM
MIC [26]: 60 µM (≈ 111 µg/mL)
MIC (Escherichia coli): 30 µM (≈ 55.5 µg/mL)
MIC [27]: 80 µM (≈ 148 µg/mL)
MIC (Bacillus subtilis): ≥ 60 µM
MIC [28]: ≥ 70 µM
MIC [29]: 80 µM (≈ 148 µg/mL)
MIC [14]: 70 µM (≈ 130 µg/mL)
Compound: CC(C)C[C@H](NC(=O)[C@H](CO)NC(=O)[C@H](CCCN=C(N)N)NC(=O)[C@H](CCCCN)NC(=O)[C@@H](NC(=O)[C@@H](NC(=O)CNC(=O)[C@H](CCCN=C(N)N)NC(=O)[C@H](Cc1cnc[nH]1)NC(=O)[C@H](Cc1c[nH]c2ccccc12)NC(=O)[C@H](Cc1ccccc1)NC(=O)[C@H](Cc1cnc[nH]1)NC(=O)[C@H](Cc1ccc(O)cc1)NC(=O)[C@@H](N)Cc1ccc(O)cc1)C(C)C)[C@@H](C)O)C(=O)O [YYHFWHRGVTKRSL]
